Measurements as given in patent US10632127B2, “Targeted notch pathway inhibitors” (Hoffmann-La Roche Inc., priority 2015, dated 2020).

Legend:
[1] = test system: Notch1 and cleaved Notch1; experiment: Immunohistochemistry of Notch1 and cleaved Notch1 in kidneys of mice exposed to aristolochic acid; type: in vivo, mouse; settings: for Notch1 and cleaved Notch1 in kidneys (immunohistochemistry): AA-exposed mice, 11a 10 mg/kg b.i.d. or 13a 30 mg/kg b.i.d. i.p., day 7, versus AA-treated mice without prodrug; for modification of Notch or cleaved Notch levels in the kidneys: healthy wild-type mice, compound injected alone (results not shown)
Method: FIG. 3. Expression of Notch1 and active cleaved Notch1 determined by immuno-histochemistry in kidneys of mice exposed to aristolochic acid (AA) and treated either with the amine-SecrI (11a) or with Ac-γ-Glu-SecrI (13a).
Sections (7 μm) of snap-frozen kidneys were exposed to an anti-γ-secretase-cleaved Notch (cNotch) antibody, followed by the […] staining. Immunostaining is visualized as dark precipitate.
All experiments with animals were conducted in accordance with federal and local regulation at the respective study location. Kidney injury was induced by intraperitoneal (i.p). injection of aristolochic acid (AA, Sigma-Aldrich, 1×5 mg/kg) in 10 weeks old BALB/c male mice. The γ-secretase inhibitors prodrugs were diluted in NaCl 0.9% and administered i.p., starting one day before the injection of AA (day −1) and then twice daily until day 6 evening (n=5 mice/experimental group). At day 7 morning (12 h after the last prodrug injection), blood was collected and the mice were sacrificed to remove the liver and both kidneys. The kidneys were cut in four fragments. One fragment was immediately frozen in liquid nitrogen, one fragment was included in OCT (Tissue-Tek, VWR International, Switzerland) and frozen, one fragment was frozen at −80° C. and one fragment was fixed in 4% paraformaldehyde and included in paraffin.
OCT-embedded frozen kidneys were cut at 7 μm. The sections were air dried, fixed for 10 min in cold (−20° C.). methanol, rinsed in PBS 0.1% Triton x-100 (PBS/Triton), and blocked for 30 min with PBS/Triton containing 5% bovine serum albumin (BSA). The rabbit anti-Notch1 antibody (D1E11, diluted 1/50) and the rabbit anti-cleaved Notch1 antibody (Val1744, diluted 1/50) were purchased from Cell Signaling, the biotinylated anti-rabbit antibody from Vector Laboratories (diluted 1/500) and streptavidin/HRP (diluted 1/500) from Dako. The primary antibodies were diluted in PBS containing 5% BSA and were incubated with the sections for 1 h at RT. Endogenous peroxidase and biotin were blocked using 3% H2O2 and Avidin/Biotin blocking kit (Vector Laboratories), respectively. The slides were rinsed with PBS/Triton three times and incubated for 1 h at RT with anti-rabbit biotin secondary antibody diluted in the same buffer as for primary antibodies. After three washes with PBS, slides were incubated with streptavidin/HRP antibody for 1 h at RT, then 3,3′diaminobenzidine (DAB, Dako) was added for 15 min. The slides were washed in distilled water, mounted in Aquamount and analyzed.
To investigate potential nephroprotective effects of Notch blockade using γ-secretase inhibition and to evaluate the effects of our enzyme-targeted prodrug strategy, we used the in vivo AA mouse model of acute renal tubular damage. […]

γ-GT = experiment: Histoenzymography of γ-GT activity in ex-vivo mouse kidneys; type: biochemical; settings: ex-vivo kidneys of non-diseased BALB/c mice
Method: FIG. 2B. Selective inhibition of the enzymatic activities of APA and yGT by the γ-secretase analogues determined by histoenzymography in the kidneys of non diseased BALB/c mice.
Evaluation by histoenzymography of APA and γ-GT enzymatic activities on frozen tissue was performed as described in Juillerat-Jeanneret, L. et al., Lab. Invest. 2000, 80, 973-980. Briefly, OCT-embedded frozen kidneys were cut in 7 μm sections in a cryostat, fixed for 5 min in cold (−20° C.) acetone, air dried at RT and rehydrated for 5 min in 0.9% NaCl. Naphthylamide substrates were obtained from commercial sources (α-Glu-4-methoxy-β-naphtylamide (APA) from Bachem; and γ-Glu-4-methoxy-β-naphtylamide (γ-GT) from Serva). Substrates (1 mg) were dissolved in 1 ml DMF and 2 mg Fast Blue B (Sigma-Aldrich) was dissolved in 2 ml 0.2M cacodylate buffer pH 7.4 containing 700 mg/l CaCl2; then both solutions were slowly mixed immediately before use and the pH adjusted to 6.5-7.0. […] The slides were washed in distilled water, counter-stained with hematoxylin (Mayer) for 1 min, rinsed under tap water, then with Scott solution for 1 min, rinsed under tap water, mounted in Aquamount (Immu-mount, Thermo Shandon Pittsburgh, Pa., USA) and analyzed with a Nikon Eclipse E800 microscope and digital DXM1200 camera using ACT-1 software. […]

| Compound | Notch1 and cleaved Notch1 in kidneys (immunohistochemistry) [1] | modification of Notch or cleaved Notch levels in the kidneys [1] | inhibition of γ-GT-like activity (hydrolysis of γ-Glu-naphthylamide) (γ-GT) |
| --- | --- | --- | --- |
| C[C@H]1Oc2ccc(F)cc2N(CCOC(=O)NCCN)C(=O)[C@H]1NC(=O)[C@@](C)(O)C(=O)NCC(F)(F)C(F)(F)F.Cl [Compound 11a, 2-((2R,3S)-7-Fluoro-3-((S)-2-hydroxy-2-methyl-3-oxo-3-(2,2,3,3,3-pentafluoropropylamino)propanamido)-2-methyl-4-oxo-3,4-dihydrobenzo[b][1,4]oxazepin-5(2H)-yl)ethyl 2-aminoethylcarbamate hydrochloride] | reduced | Neither (11a) nor (13a) injected alone induced any modification |  |
| CC(=O)N[C@@H](CCC(=O)NCCNC(=O)OCCN1C(=O)[C@@H](NC(=O)[C@@](C)(O)C(=O)NCC(F)(F)C(F)(F)F)[C@@H](C)Oc2ccc(F)cc21)C(=O)O [Compound 13a, (S)-2-acetamido-5-(2-((2-((2R,3S)-7-fluoro-3-((S)-2-hydroxy-2-methyl-3-oxo-3-(2,2,3,3,3-pentafluoropropylamino)propanamido)-2-methyl-4-oxo-3,4-dihydrobenzo[b][1,4]oxazepin-5(2H)-yl)ethoxy)carbonylamino)ethylamino)-5-oxopentanoic acid] | reduced | Neither (11a) nor (13a) injected alone induced any modification | able to inhibit γ-GT-like activity |
